Values quoted from earlier work as cited in patent US8073633B2 (The Invention Science Fund I, LLC, priority 2008, dated 2011).

Columns and labels:
[1] = given with grapefruit juice as compared to water
[2] = in vivo
[3] = coadministered itraconazole relative to placebo

percentage change in Cmax values [1] [%] | innate oral bioavailability [2] | change of area under the serum concentration-time curve [AUC (0-infinity)] [3] | change of peak serum concentration (Cmax) [3] | Structure (SMILES) | further results
 |  | slightly increased | slightly increased | CC[C@H](C)C(=O)O[C@H]1C[C@H](O)C=C2C=C[C@H](C)[C@H](CC[C@@H](O)C[C@@H](O)CC(=O)O)[C@H]21 [pravastatin] | plasma half-life [3]: not altered
 |  | at least tenfold | at least tenfold | CCC(C)(C)C(=O)O[C@H]1C[C@@H](C)C=C2C=C[C@H](C)[C@H](CC[C@@H](O)C[C@@H](O)CC(=O)O)[C@H]21 [simvastatin acid] | 

The remaining lines, values behind:

Structure (SMILES) | percentage change in Cmax values [1] [%] | innate oral bioavailability [2] | change of area under the serum concentration-time curve [AUC (0-infinity)] [3] | change of peak serum concentration (Cmax) [3] | further results
CCOC(=O)C1=C(COCCN)NC(C)=C(C(=O)OC)C1c1ccccc1Cl (stereo not drawn) [amlodipine] | 115 | very high |  |  | 
O=P1(N(CCCl)CCCl)NCCCO1 (stereo not drawn) [cyclophosphamide] |  |  |  |  | relative risk for ovarian failure (lupus nephritis patients homozygous or heterozygous for CYP2C19*2, pulse cyclophosphamide therapy): 0.10; probability of progressing to end stage renal disease (patients homozygous for CYP2B6*5 or CYP2C19*2 (P=0.0005)): higher probability; probability of achieving a complete renal response (patients homozygous for CYP2B6*5 or CYP2C19*2 (P=0.051)): lower probability
COC(=O)C1=C(C)NC(C)=C(C(=O)OCC(C)C)C1c1ccccc1[N+](=O)[O-] (stereo not drawn) [nisoldipine] | 409 | very low |  |  | 
